Assay results published in patent US20220347171A1, “TREATMENT OF PRURIGO NODULARIS” (TREVI THERAPEUTICS, INC., priority 2016, published 2022).
Where a name gives a salt, the structure may show the parent alone.

Columns and labels:
[1] = system: prurigo nodularis patients; assay: Double-blind, placebo-controlled trial in prurigo nodularis patients (Example 2): 7-day average daily Worst Itching Intensity NRS (0-10); assay type: in vivo, human
Experimental: (§1) This clinical study was a double-blind, placebo-controlled trial in which prurigo nodularis patients were randomized in a 1:1:1 ratio to nalbuphine ER tablets to a target dose of 90 mg twice daily (BID), nalbuphine HCl ER tablets 180 mg BID, or placebo tablets BID. Use of nonsedating rescue antihistamine medications (non-first generation H1-antihistamines [Simons F E. Advances in H1-antihistamines. N Engl J Med. 2004; 351(21):2203-17.]) were allowed in the study but their use was recorded. Cleansing emollients were allowed for hygiene purposes provided there were no active substances (such as menthol or urea) contained in the lotion. A placebo comparator was chosen because there are no approved treatments for prurigo nodularis in the United States or Europe or an established standard of care that could serve as an active control.
The primary objectives were to evaluate the effects of two doses of nalbuphine HCl ER tablets on the 7-day average daily worst itch (i.e., most severe) intensity using a Worst Itching Intensity Numerical Rating Scale (NRS, 0 [no itching]-10 [worst possible itching]; range, 0-10; anchors at 0 “no itching”; 4-6 “moderate itching”; and 10 “worst possible itching”) (FIG. 1) as well as safety and tolerability. The study was conducted at four North American sites and four European sites. The Sponsor oversaw the conduct of the trial and an independent unblinded Data Safety Monitoring Board reviewed safety data approximately once a month during the conduct of the trial.
The initial primary endpoint was the proportion of patients who achieved at least 30% reduction threshold in 7-day average daily diary-reported worst itch intensity NRS score from baseline to Week 10/last observed post-baseline value (LOV). For the primary endpoint, a responder was a patient who achieved at least 30% reduction threshold in 7-day average daily diary-reported worst itch intensity NRS score from baseline to Week 10/last observed post-baseline value (LOV).
Before study completion and unblinding, however, a more substantial 50% NRS reduction criterion was added as an important definition of response. For this criterion, a responder was a patient who achieved at least 50% reduction threshold in 7-day average daily diary-reported worst itch intensity NRS score from baseline to Week 10/last observed post-baseline value (LOV).
The modified intent-to-treat (MITT) population consisted of all randomly assigned patients who provided a baseline calculated NRS and at least one post-baseline NRS during randomized treatment. Patients were analyzed according to the treatment to which they were randomly assigned.
The primary worst itch NRS endpoint was evaluated by the calculation of proportions, and statistical testing of each nalbuphine dose and placebo was undertaken using a stratified categorical method, the Cochran-Mantel-Haenszel test that took into account site. Specifically, each nalbuphine group was compared to placebo in the form of a stratified (by site) 2×2 table with a P value reported for the nalbuphine HCl ER 180 mg BID versus placebo comparison and a P value separately reported for the nalbuphine HCl ER 90 mg BID versus placebo comparison. The lower nalbuphine dose versus placebo P value was evaluated only if the higher nalbuphine dose versus placebo P value was statistically significant at the 0.05 level. Data from all post-baseline visits were used to fit the model.
In the first 2 weeks of treatment, patients were blindly force-titrated to their assigned target dose, with the patients in the active arms reaching a dose of 90 mg BID (NAL 90) and, for those in the high dose group, to 180 mg BID (NAL 180) in the second week. Study drug was administered in blister cards containing the labeled morning and evening doses for each day of the week. Subsequently, patients continued stable doses of the study drug for an additional 8 weeks and were then washed off study drug and followed for another 2 weeks for itching intensity and safety.

[2] = system: prurigo nodularis patients; assay: Example 2 trial: ItchyQoL total score; assay type: in vivo, human; settings: for Mean (SD) decrease in ItchyQoL total score from baseline to Week 10: placebo −5.45 (10.91)
Experimental: as §1
Quality of life-related secondary endpoints included change from Day 1 to the Evaluation Period in itching-related quality of life (using the Itchy QoL) and itching-related sleep disruption (using the MOS Sleep Scale-R). The Hospital Anxiety and Depression Score (HADS) used as a general measure of anxiety and depression.
Efficacy analysis of secondary continuous endpoints was performed using a mixed model repeated ANCOVA with the main effects of treatment and site, including the baseline value for each endpoint as the covariate. The model included time (i.e. Visit) as a factor variable and treatment*time (with placebo as the reference category) with an unstructured covariance structure for repeated measures. For other secondary efficacy endpoints, the Time factor corresponded to the scheduled study visits when the assessment was obtained (Visit 3, Visit 4, and Visit 5). Data from all post-baseline visits were used to fit the model.
In the first 2 weeks of treatment, patients were blindly force-titrated to their assigned target dose, with the patients in the active arms reaching a dose of 90 mg BID (NAL 90) and, for those in the high dose group, to 180 mg BID (NAL 180) in the second week. […]

## Oc1ccc2c3c1OC1[C@@H](O)CC[C@@]4(O)[C@@H](C2)N(CC2CCC2)CC[C@]314 (stereo partly drawn) [Nalbuphine, 17-(cyclobutylmethyl)-4,5α-epoxymorphinian-3, 6α, 14-triol, hydrochloride]
[1]; 90 mg BID, Week 10 - LOV, MITT N=22, P value 0.779 vs placebo
  Responders: at least 30% reduction in 7-day average daily diary-reported worst itch intensity NRS score from baseline: 6 (27.3) N (%)
[1]; 90 mg BID, Week 10 - LOV, MITT N=22, p-value 0.981 vs placebo
  Responders: at least 50% reduction in 7-day average daily diary-reported worst itch intensity NRS score from baseline: 3 (13.6%) N (%)
[1]; 90 mg BID, Week 10 - completer, N=18, P value 0.723 vs placebo
  Responders: at least 30% reduction in 7-day average daily diary-reported worst itch intensity NRS score from baseline: 6 (33.3) N (%)
[1]; 90 mg BID, Week 10 - completer, N=18, p-value 0.649 vs placebo
  Responders: at least 50% reduction in 7-day average daily diary-reported worst itch intensity NRS score from baseline: 2 (11.1%) N (%)
[1]; 180 mg BID, Week 10 - LOV, MITT N=18, P value 0.323 vs placebo
  Responders: at least 30% reduction in 7-day average daily diary-reported worst itch intensity NRS score from baseline: 8 (44.4) N (%)
[1]; 180 mg BID, Week 10 - LOV, MITT N=18, p-value 0.083 vs placebo
  Responders: at least 50% reduction in 7-day average daily diary-reported worst itch intensity NRS score from baseline: 6 (33.3%) N (%)
[1]; 180 mg BID, Week 10 - completer, N=12, P value 0.026 vs placebo
  Responders: at least 30% reduction in 7-day average daily diary-reported worst itch intensity NRS score from baseline: 9 (75.0) N (%)
[1]; 180 mg BID, Week 10 - completer, N=12, p-value 0.028 vs placebo
  Responders: at least 50% reduction in 7-day average daily diary-reported worst itch intensity NRS score from baseline: 6 (50%) N (%)
[1]; 180 mg BID, patients who completed the study, P=0.025
  Mean Change from Baseline to the Last Observation in the Worst Itching NRS versus placebo: statistically significant difference
[2]; 90 mg BID
  Mean (SD) decrease in ItchyQoL total score from baseline to Week 10: −7.79 (7.83)
[2]; 180 mg BID, Week 10, p=0.022
  ItchyQoL total score, LS mean difference versus placebo (mixed model repeated measures): −8.75
[2]; 180 mg BID
  Mean (SD) decrease in ItchyQoL total score from baseline to Week 10: −13.83 (13.45)
